24 compounds from patent US12247033B2, “Triazole-substituted imidazo[1,2-a]pyrimidines as cGAS inhibitors” (GlaxoSmithKline Intellectual Property Development Limited, priority 2022, dated 2025) can be followed below.

For assay [1], the target named is human CGAS (157-522) (Homo sapiens, UniProt Q8N884). Briefly: biochemical.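 Further: biochemical enzyme reaction, 2′3′-cGAMP product measured by RapidFire mass spectrometry (MRM) normalised to c-di-UMP internal standard, inhibition of product formation relative to high and low control wells.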
Description: Compounds were serially diluted 2, 3, or 4-fold in neat DMSO to generate 11-point dose response curves and then 250 nL compound or DMSO solution was transferred to Greiner 384-well V-bottom assay plates (Catalog #781280) using an Echo acoustic dispenser (Labcyte). A solution of 150 μM ATP, 150 μM GTP, 20 μM pppGpA (GTP-2′5′-AMP, custom synthesis from ChemGenes), and 10 μg/mL sheared salmon sperm DNA (Sigma, Catalog #D1626) in assay buffer (20 mM Trizma, pH 7.5, 10 mM magnesium chloride, 0.3 mM CHAPS, and 0.01% (w/v) bovine serum albumin) was added to columns 1-17, 19-24 of the plate at 12.5 μL/well using a Combi liquid handler (ThermoFisher). A 12.5 μL/well low control solution containing 150 μM ATP, 150 μM GTP, 20 μM pppGpA in assay buffer was added to column 18 using the Combi. A 12.5 μL/well solution of 10-100 nM human CGAS (157-522) in assay buffer was then added to all wells of the plate using the Combi. […] Reactions were quenched by added 50 μL/well of 0.5% (v/v) trifluoroacetic acid (TFA) in mass spectrometry grade deionized water containing 5 μM cyclic-di-UMP (ci-di-UMP; Invivogen Catalog #tlrl-cdu) as the internal standard (IS). Plates were centrifuged for 1 min and then quenched reactions were analyzed using a RF-MS 300 system operating in a Multiple Reaction Monitoring (MRM) detection mode.
Samples (10 μL injection volume) were passed over a silica C18/type C solid phase extraction (SPE) cartridge for analyte (2′3′-cyclic guanosine monophosphate adenosine monophosphate (2′3′-cGAMP), product of biochemical reaction)/pppGpA/c-di-UMP IS adsorption. Adsorbed samples were desalted for 3000 ms using a 100% water eluent A/desalting solution. Afterwards, desalted samples were eluted using a 0.5% TFA in 20%/80% acetonitrile/water eluent B/elution solution directly into either a Sciex 4000, 5000 or 5500 triple quadrupole mass spectrometer (QQQ-MS) for MRM analyte/IS detection. QQQ-MS detection conditions were as follow: scan type: MRM; curtain (CUR) gas: 30 psi; nebulizer (GS1) gas: 50 psi; drying (GS2) gas: 60 psi; collisionally activated dissociation (CAD) gas: 12 relative setting; precursor ion (Q1) masses: 2′3′-cGAMP: m/z 675.1 Da/pppGpA: m/z 853.0 Da/c-di-UMP: m/z 613.1 Da; fragment ion (Q3) masses: 2′3′-cGAMP: m/z 524.1 Da/pppGpA: m/z 702.0 Da/c-di-UMP: 307.1 Da; declustering potentials (DPs): 2′3′-cGAMP: +81 V/pppGpA: +85 V/c-di-UMP: +85 V; entrance potential: +10 V (all analytes); collision energies (CEs): 2′3′-cGAMP: +33 V/pppGpA: +36 V/c-di-UMP: +35 V; collision cell exit potential (CXP): +10 V (all analytes); interface heater (Sciex 4000/5000 only): on; Q1 resolution: unit (all analyte); Q3 resolution: unit (all analytes). The area under the curve (AUC) for all analytes was obtained using the RapidFire Integrator software application to calculate AUC-2′3′-cGAMP/AUC-c-di-UMP intensity ratio. Percent product formation was calculated by comparison to column 6 (high control)/column 18 (low control) responses. The % product inhibition was calculated as follows:
[formula] where A is the minimum response, B is the maximum response, C is the log10*XC50, D is the slope factor, and x is the log10 compound concentration [M] in ABASE XE.
The test system of assay [2] is CGAS. Briefly: CGAS whole blood cytokine release assay (384-well, BacMam stimulation, IP-10 by cytometric bead array). Type of assay: cell-based. As to conditions: Homo sapiens, 6 h; read-out: hWB pXC50 (converted). How it is done: Blood collection: Blood was collected in a tube containing 10% Sodium Heparin (5 ml/45 ml blood final).
Protocol for CGAS Whole Blood Cytokine Release Assay: Compounds serial diluted at 1:3 were provided at 150 nL per well, in a 384 well polypropylene microplate (cat. 781280; Greiner Bio-One, Frickenhausen, Germany). 5 μL of PBS/20% Null BacMam was dispensed to all wells except for column 18 on a Multidrop Combi (Thermo Scientific, Waltham, MA). 5 uL of PBS was dispensed into column 18. The Bravo (Agilent, Santa Clara, CA) was used to transfer 45 uL of donor derived blood into the compound plates. The Bravo protocol mixed the blood and compound/PBS 5 times. The plates were incubated at 37° C., 5% CO2, for 6 hours. At the 6 hour mark the plates were removed and centrifuged for 10 minutes at 3000 RPM. 3 uL of supernatant was transferred from the plate to a 384 well NBS microplate (cat. 4513; Corning Life Sciences, Corning, NY). These plates were sealed with adhesive foil and stored in a −80 freezer until ready for analysis.
For cytokine detection, Human IP-10 BD cytometric bead array (CBA) beads (BD Biosciences, Franklin Lakes, NJ) were used. Capture bead solution was prepared by performing a 1:50 dilution of the IP-10 capture bead stock solution in BD diluent for serum/plasma (cat. 51-9003991 BD Biosciences, Franklin Lakes, NJ). 2 μL of this solution was added per well to the assay microplates which were then sealed with adhesive foil and incubated at room temperature for 2 h in the dark. Detection reagent was further prepared by performing a 1:50 dilution of the detection reagent stock solution. 2 μL of detection reagent was added per well and microplates were sealed with adhesive foil and incubated at room temperature in the dark for 1 h. After the 1 h incubation 3 uL of BD CBA wash buffer was added per well of the microplates. Data were acquired on an iQue Screener flow cytometer. The iQue used fluorescence detection to quantify the inhibition of IP-10 present in the sample wells. A sip time of 1 second per sample was used. The blue laser with excitation of 488 nm and emission filters 585/40 nm were used to capture the mean and median of IP-10 with the detector in logarithmic mode (FL2-H).
All data analysis was carried out in IDBS ActivityBase XE.

Where a name gives a salt, the structure may show the parent alone.

Chain of human CGAS (157-522) (Q8N884 157-522): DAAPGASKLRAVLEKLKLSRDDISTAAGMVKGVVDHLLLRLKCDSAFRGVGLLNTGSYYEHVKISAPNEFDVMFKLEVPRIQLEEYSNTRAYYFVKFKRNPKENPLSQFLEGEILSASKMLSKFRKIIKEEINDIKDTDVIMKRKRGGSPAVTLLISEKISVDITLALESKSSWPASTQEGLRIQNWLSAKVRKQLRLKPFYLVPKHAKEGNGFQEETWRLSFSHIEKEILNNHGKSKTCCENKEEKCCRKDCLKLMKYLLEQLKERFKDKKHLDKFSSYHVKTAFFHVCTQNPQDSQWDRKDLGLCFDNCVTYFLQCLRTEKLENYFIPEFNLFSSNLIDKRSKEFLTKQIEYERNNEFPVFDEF

`O=S1(=O)CCc2nc3nc(-c4nc(C(F)(F)F)n[nH]4)c(-c4cnc[nH]4)n3cc2C1` [Example 104, 6-(1H-imidazol-5-yl)-5-[3-(trifluoromethyl)-1H-1,2,4-triazol-5-yl]-11λ^6-thia-2,4,7-triazatricyclo[7.4.0.0^3,^7]trideca-1,3,5,8-tetraene-11,11-dione]: the IC50 in assay [1] was 3.98 nM; in assay [2], 6310 nM.

As to `CC(COCc1cnc2nc(-c3nc(C(F)(F)F)n[nH]3)c(-c3c[nH]cn3)n2c1)n1ccnc1` (stereo not drawn) [Example 143, 5-(6-{[2-(1H-imidazol-1-yl)propoxy]methyl}-3-(1H-imidazol-4-yl)imidazo[1,2-a]pyrimidin-2-yl)-3-(trifluoromethyl)-1H-1,2,4-triazole], the figures for the IC50 in assay [1] and in assay [2] were 3.98 nM and 2510 nM, respectively.

Regarding `CC(=O)c1ccn2c(-c3cnc[nH]3)c(-c3nc(C(F)(F)F)n[nH]3)nc2n1` [Example 14, 1-[3-(1H-imidazol-5-yl)-2-[3-(trifluoromethyl)-1H-1,2,4-triazol-5-yl]imidazo[1,2-a]pyrimidin-7-yl]ethan-1-one], the figures for the IC50 in assay [1] and in assay [2] were 10 nM and 63.1 nM, respectively.

As for `FC(F)(F)c1n[nH]c(-c2nc3ncc(COC4CCNC4)cn3c2-c2cnc[nH]2)n1` (stereo not drawn) [Example 80, 5-[3-(1H-imidazol-5-yl)-6-[(pyrrolidin-3-yloxy)methyl]imidazo[1,2-a]pyrimidin-2-yl]-3-(trifluoromethyl)-1H-1,2,4-triazole], the IC50 in assay [1] is 3.16 nM; in assay [2], 12600 nM.

`CC(C)(C)c1cnc2nc(-c3nc(C(F)(F)F)n[nH]3)c(-c3c[nH]cn3)n2c1` [Example 109, 5-[6-tert-butyl-3-(1H-imidazol-4-yl)imidazo[1,2-a]pyrimidin-2-yl]-3-(trifluoromethyl)-1H-1,2,4-triazole]: the IC50 in assay [1] is 5.01 nM; in assay [2] it was 1260 nM.

With `FC(F)(F)c1n[nH]c(-c2nc3ncc(COCCC4CCOC4)cn3c2-c2cnc[nH]2)n1` (stereo not drawn) [Example 139, 5-[3-(1H-imidazol-5-yl)-6-{[2-(oxolan-3-yl)ethoxy]methyl}imidazo[1,2-a]pyrimidin-2-yl]-3-(trifluoromethyl)-1H-1,2,4-triazole], the figures for the IC50 in assay [1] and in assay [2] were 7.94 nM and 398 nM, respectively.

Take `CS(=O)(=O)c1cnc2nc(-c3nc(C(F)(F)F)n[nH]3)c(-c3cnc[nH]3)n2c1` [Example 22, 5-[3-(1H-imidazol-5-yl)-6-methanesulfonylimidazo[1,2-a]pyrimidin-2-yl]-3-(trifluoromethyl)-1H-1,2,4-triazole]: the IC50 was 25.1 nM in assay [1] and 7940 nM in assay [2].

With `FC(F)(F)c1n[nH]c(-c2nc3nc(C(F)(F)F)c(Cl)cn3c2-c2cnc[nH]2)n1` [Example 128, 5-[6-chloro-3-(1H-imidazol-5-yl)-7-(trifluoromethyl)imidazo[1,2-a]pyrimidin-2-yl]-3-(trifluoromethyl)-1H-1,2,4-triazole], the IC50 was 12.6 nM in assay [1] and 3160 nM in assay [2].

As for `O=C(CCCOP(=O)(O)O)OCn1cnc(-c2c(-c3nc(C(F)(F)F)nn3COC(=O)CCCOP(=O)(O)O)nc3ncccn23)c1` [Example 30, {4-oxo-4-[(5-{3-[1-({[4-(phosphonooxy)butanoyl]oxy}methyl)-1H-imidazol-4-yl]imidazo[1,2-a]pyrimidin-2-yl}-3-(trifluoromethyl)-1H-1,2,4-triazol-1-yl)methoxy]butoxy}phosphonic acid, trifluoroacetic acid salt], the IC50 in assay [1] was 316 nM; in assay [2], 1260 nM.

Consider `CC(=O)n1cnc(-c2c(-c3nc(C(F)(F)F)n[nH]3)nc3ncccn23)c1` [Example 62, 1-(4-{2-[3-(trifluoromethyl)-1H-1,2,4-triazol-5-yl]imidazo[1,2-a]pyrimidin-3-yl}-1H-imidazol-1-yl)ethan-1-one], for which the IC50 in assay [2] is 126 nM.

Consider `FC(F)(F)COc1ccn2c(-c3cnc[nH]3)c(-c3nc(C(F)(F)F)n[nH]3)nc2n1` [Example 12, 5-[3-(1H-imidazol-5-yl)-7-(2,2,2-trifluoroethoxy)imidazo[1,2-a]pyrimidin-2-yl]-3-(trifluoromethyl)-1H-1,2,4-triazole], for which the IC50 in assay [2] was 6310 nM.

For `FC(F)(F)c1ccn2c(-c3cnc[nH]3)c(-c3nc(Br)n[nH]3)nc2n1` [Example 91, 3-bromo-5-[3-(1H-imidazol-5-yl)-7-(trifluoromethyl)imidazo[1,2-a]pyrimidin-2-yl]-1H-1,2,4-triazole], the IC50 in assay [2] is 1000 nM.

On to `CS(=O)(=O)N1Cc2cn3c(-c4cnc[nH]4)c(-c4nc(C(F)(F)F)n[nH]4)nc3nc2C1` [Example 67, 12-(1H-imidazol-5-yl)-5-methanesulfonyl-11-[3-(trifluoromethyl)-1H-1,2,4-triazol-5-yl]-1,5,8,10-tetraazatricyclo[7.3.0.0^3,^7]dodeca-2,7,9,11-tetraene], for which the IC50 in assay [2] is 2510 nM.

For the compound `CCOCc1cnc2nc(-c3nc(C(F)F)n[nH]3)c(-c3cnc[nH]3)n2c1` [Example 85, 3-(difluoromethyl)-5-[6-(ethoxymethyl)-3-(1H-imidazol-5-yl)imidazo[1,2-a]pyrimidin-2-yl]-1H-1,2,4-triazole], the IC50 in assay [2] was 50.1 nM.

In the case of `CC1(C)Cc2nc3nc(-c4nc(C(F)(F)F)n[nH]4)c(-c4c[nH]cn4)n3cc2CO1` [Example 137, 6-(1H-imidazol-4-yl)-12,12-dimethyl-5-[3-(trifluoromethyl)-1H-1,2,4-triazol-5-yl]-11-oxa-2,4,7-triazatricyclo[7.4.0.0^3,^7]trideca-1,3,5,8-tetraene], the IC50 in assay [2] was 631 nM.

With `COC(=O)c1ccn2c(-c3c[nH]cn3)c(-c3nc(C(F)(F)F)n[nH]3)nc2n1` [Example 100, methyl 3-(1H-imidazol-4-yl)-2-[3-(trifluoromethyl)-1H-1,2,4-triazol-5-yl]imidazo[1,2-a]pyrimidine-7-carboxylate], the IC50 in assay [2] was 398 nM.

With `FC(F)(F)c1n[nH]c(-c2nc3ncc(COC4CCOCC4)cn3c2-c2c[nH]cn2)n1` [Example 65, 5-[3-(1H-imidazol-4-yl)-6-[(oxan-4-yloxy)methyl]imidazo[1,2-a]pyrimidin-2-yl]-3-(trifluoromethyl)-1H-1,2,4-triazole], the IC50 in assay [2] was 501 nM.

In the case of `FC(F)COCc1cnc2nc(-c3nc(C(F)(F)F)n[nH]3)c(-c3cnc[nH]3)n2c1` [Example 101, 5-{6-[(2,2-difluoroethoxy)methyl]-3-(1H-imidazol-5-yl)imidazo[1,2-a]pyrimidin-2-yl}-3-(trifluoromethyl)-1H-1,2,4-triazole], in assay [2], the IC50 is 126 nM.

Turning to `O=C(COCc1cnc2nc(-c3nc(C(F)(F)F)n[nH]3)c(-c3c[nH]cn3)n2c1)N1CCCCC1` [Example 152, 2-{[3-(1H-imidazol-4-yl)-2-[3-(trifluoromethyl)-1H-1,2,4-triazol-5-yl]imidazo[1,2-a]pyrimidin-6-yl]methoxy}-1-(piperidin-1-yl)ethan-1-one], the IC50 in assay [2] is 2510 nM.

As for `FC(F)(F)c1cnc2nc(-c3nc(C(F)(F)F)n[nH]3)c(-c3cnc[nH]3)n2c1` [Example 64, 5-[3-(1H-imidazol-5-yl)-6-(trifluoromethyl)imidazo[1,2-a]pyrimidin-2-yl]-3-(trifluoromethyl)-1H-1,2,4-triazole], the IC50 in assay [2] is 398 nM.

Take `CNCCOC(=O)OCn1cnc(-c2c(-c3nc(C(F)(F)F)n[nH]3)nc3ncccn23)c1` [Example 26, 2-(methylamino)ethyl (4-{2-[3-(trifluoromethyl)-1H-1,2,4-triazol-5-yl]imidazo[1,2-a]pyrimidin-3-yl}-1H-imidazol-1-yl)methyl carbonate, 2 trifluoroacetic acid salt]: the IC50 in assay [2] was 39.8 nM.

Turning to `FC(F)(F)c1n[nH]c(-c2nc3ncc(C4(C(F)(F)F)CC4)cn3c2-c2cnc[nH]2)n1` [Example 144, 5-[3-(1H-imidazol-5-yl)-6-[1-(trifluoromethyl)cyclopropyl]imidazo[1,2-a]pyrimidin-2-yl]-3-(trifluoromethyl)-1H-1,2,4-triazole], in assay [2], the IC50 is 794 nM.

Consider `FC(F)(F)c1ccn2c(-c3cn[nH]c3)c(-c3nc(C(F)(F)F)n[nH]3)nc2n1` [Example 93, 5-[3-(1H-pyrazol-4-yl)-7-(trifluoromethyl)imidazo[1,2-a]pyrimidin-2-yl]-3-(trifluoromethyl)-1H-1,2,4-triazole], for which the IC50 in assay [2] was 2510 nM.

As for `CC(=O)N(C)Cc1cnc2nc(-c3nc(C(F)(F)F)n[nH]3)c(-c3cnc[nH]3)n2c1` [Example 76, N-{[3-(1H-imidazol-5-yl)-2-[3-(trifluoromethyl)-1H-1,2,4-triazol-5-yl]imidazo[1,2-a]pyrimidin-6-yl]methyl}-N-methylacetamide], the IC50 in assay [2] is 5010 nM.
